Reference: ChEMBL document CHEMBL1255337, “Entecavir exhibits inhibitory activity against human immunodeficiency virus under conditions of reduced viral challenge” (Antimicrob Agents Chemother, 2008)
The source made the active and inactive calls. The rule behind the calls is not given here.

Assays:
[1] = test system: Human immunodeficiency virus 1; type: functional, organism-based; settings: Human immunodeficiency virus 1, NL4-3, MT2
[2] = test system: Human immunodeficiency virus 1; experiment: microbe, parasite or virus in culture; settings: Human immunodeficiency virus 1, subtype B-ASM 034, PBMC
Description: Antiviral activity against HIV1 subtype B-ASM 034 infected in 1 hr-pretreated PBMC cells assessed as inhibition of p24 antigen production measured on day 5 postinfection by ELISA

[3] = test system: Human immunodeficiency virus; experiment: Antiviral activity against HIV infected in CD4+ lymphocyte by fluorescence-activated cell sorter assay; type: functional, organism-based; settings: Human immunodeficiency virus 1
[4] = test system: Human immunodeficiency virus 1; experiment: microbe, parasite or virus in culture; settings: Human immunodeficiency virus 1, NL4-3, MT2, 120 h
Description: Antiviral activity against 0.005 MOI wild type HIV1 NL4-3 infected in human MT2 cells measured after 5 days by RT SPA

[5] = test system: Human immunodeficiency virus 1; experiment: microbe, parasite or virus in culture; settings: Human immunodeficiency virus 1, NL4-3, MT2, 120 h; remark: listed apart in the source
Description: Antiviral activity against 0.01 MOI wild type HIV1 NL4-3 infected in human MT2 cells measured after 5 days by MTS assay

[6] = test system: Human immunodeficiency virus 1; experiment: microbe, parasite or virus in culture; settings: Human immunodeficiency virus 1, NL4-3, MT2
Description: Antiviral activity against 0.02 MOI wild type HIV1 NL4-3 infected in 2 hr-pretreated human MT2 cells measured after 5 days by MTS assay

[7] = test system: Human immunodeficiency virus 1; experiment: microbe, parasite or virus in culture; settings: Human immunodeficiency virus 1, NL4-3, MT2, 120 h; remark: listed apart in the source
Description: Antiviral activity against 0.05 MOI wild type HIV1 NL4-3 infected in human MT2 cells measured after 5 days by RT SPA

[8] = test system: Human immunodeficiency virus 1; experiment: microbe, parasite or virus in culture; settings: Human immunodeficiency virus 1, subtype B-93US143, PBMC
Description: Antiviral activity against HIV1 subtype B-93US143 infected in 1 hr-pretreated PBMC cells assessed as inhibition of p24 antigen production measured on day 5 postinfection by ELISA

[9] = test system: Human immunodeficiency virus 1; experiment: microbe, parasite or virus in culture; settings: Human immunodeficiency virus 1, NL4-3, MT2; remark: listed apart in the source
Description: Antiviral activity against 0.05 MOI wild type HIV1 NL4-3 infected in 2 hr-pretreated human MT2 cells measured after 5 days by RT SPA

[10] = test system: Human immunodeficiency virus 1; experiment: Antiviral activity against 0.005 MOI HIV1 NL4-3 harboring wild type RT infected in human MT2 cells by phenosense assay; type: functional, organism-based; settings: Human immunodeficiency virus 1, NL4-3, MT2
[11] = test system: Human immunodeficiency virus 1; type: functional, organism-based; settings: Human immunodeficiency virus 1, NL4-3, MT2; remark: listed apart in the source
[12] = test system: Human immunodeficiency virus 1; experiment: Antiviral activity against HIV1 NL4-3 harboring M184L mutant RT infected in human MT2 cellssmeasured after 7 passages on day 34 postinfection; type: functional, organism-based; settings: Human immunodeficiency virus 1, NL4-3, MT2
[13] = test system: Human immunodeficiency virus 1; experiment: microbe, parasite or virus in culture; settings: Human immunodeficiency virus 1, subtype B-RF, MT2
Description: Antiviral activity against HIV1 subtype B-RF infected in 1 hr-pretreated human MT2 cells assessed as inhibition of multicycle replication measured on day 5 postinfection by RT SPA

[14] = test system: Human immunodeficiency virus 1; experiment: microbe, parasite or virus in culture; settings: Human immunodeficiency virus 1, NL4-3, MT2, 120 h; remark: listed apart in the source
Description: Antiviral activity against 0.02 MOI wild type HIV1 NL4-3 infected in human MT2 cells measured after 5 days by MTS assay

[15] = test system: Human immunodeficiency virus 1; experiment: Antiviral activity against HIV1 3B infected in MOLT-4/3B cells assessed as inhibition of mature virus release measured after 4 days of infection by RT assay; type: functional, organism-based; settings: Human immunodeficiency virus 1, 3B, MOLT-4, 96 h
[16] = test system: Human immunodeficiency virus 1; experiment: Antiviral activity against pseudotype HIV1 LAI-Luc infected in CD4-positive human HeLa cells measured on day 3 postinfection by luciferase reporter gene assay; type: functional, organism-based; settings: Human immunodeficiency virus 1, LAI-Luc, 72 h
[17] = test system: Human immunodeficiency virus 1; experiment: microbe, parasite or virus in culture; settings: Human immunodeficiency virus 1, subtype B-NL4-3, MT2
Description: Antiviral activity against HIV1 subtype B-NL4-3 infected in 1 hr-pretreated human MT2 cells assessed as inhibition of multicycle replication measured on day 5 postinfection by RT SPA

[18] = test system: Human immunodeficiency virus 1; experiment: Antiviral activity against HIV1 subtype B-NL4-3 infected in 2 hrs pretreated human MT2 cells assessed as inhibition of multicycle replication measured on day 5 postinfection by RT SPA; type: functional, organism-based; settings: Human immunodeficiency virus 1, subtype B-NL4-3, MT2
[19] = test system: Human immunodeficiency virus 1; experiment: Antiviral activity against 0.006 MOI HIV1 NL4-3 infected in human MT2 cells measured after 5 days by RT SPA; type: functional, organism-based; settings: Human immunodeficiency virus 1, NL4-3, MT2, 120 h
[20] = Cmax in human at 1 mg, po; settings: in vivo
[21] = test system: Human immunodeficiency virus 1; experiment: microbe, parasite or virus in culture; settings: Human immunodeficiency virus 1, NL4-3, MT2; remark: listed apart in the source
Description: Antiviral activity against 0.005 MOI wild type HIV1 NL4-3 infected in 2 hr-pretreated human MT2 cells measured after 5 days by RT SPA

[22] = test system: Human immunodeficiency virus 1; experiment: microbe, parasite or virus in culture; settings: Human immunodeficiency virus 1, NL4-3, MT2, 120 h; remark: listed apart in the source
Description: Antiviral activity against 0.01 MOI wild type HIV1 NL4-3 infected in human MT2 cells measured after 5 days by RT SPA

[23] = test system: Human immunodeficiency virus 1; experiment: microbe, parasite or virus in culture; settings: Human immunodeficiency virus 1, subtype B-92US076, PBMC
Description: Antiviral activity against HIV1 subtype B-92US076 infected in 1 hr-pretreated PBMC cells assessed as inhibition of p24 antigen production measured on day 5 postinfection by ELISA

[24] = test system: Human immunodeficiency virus 1; experiment: Antiviral activity against pseudotype HIV1 LAI-Luc infected in human MT2 cells measured on day 3 postinfection by luciferase reporter gene assay; type: functional, organism-based; settings: Human immunodeficiency virus 1, LAI-Luc, MT2, 72 h
[25] = test system: Human immunodeficiency virus 1; experiment: Antiviral activity against HIV1 subtype B-NL4-3 infected in 3 hrs pretreated human MT2 cells assessed as inhibition of multicycle replication measured on day 5 postinfection by RT SPA; type: functional, organism-based; settings: Human immunodeficiency virus 1, subtype B-NL4-3, MT2
[26] = test system: Human immunodeficiency virus 1; experiment: microbe, parasite or virus in culture; settings: Human immunodeficiency virus 1, NL4-3, MT2; remark: listed apart in the source
Description: Antiviral activity against 0.05 MOI wild type HIV1 NL4-3 infected in 2 hr-pretreated human MT2 cells measured after 5 days by MTS assay

[27] = test system: Human immunodeficiency virus 1; experiment: microbe, parasite or virus in culture; settings: Human immunodeficiency virus 1, subtype B-SF-2, MT2
Description: Antiviral activity against HIV1 subtype B-SF-2 infected in 1 hr-pretreated human MT2 cells assessed as inhibition of multicycle replication measured on day 5 postinfection by RT SPA

[28] = test system: Human immunodeficiency virus 1; experiment: Antiviral activity against pseudotype HIV1 NL-Luc infected in 24 hrs pretreated HEK293 cells by phenosense assay; type: functional, organism-based; settings: Human immunodeficiency virus 1, NL-Luc
[29] = test system: Human immunodeficiency virus 1; experiment: microbe, parasite or virus in culture; settings: Human immunodeficiency virus 1, NL4-3, MT2; remark: listed apart in the source
Description: Antiviral activity against 0.01 MOI wild type HIV1 NL4-3 infected in 2 hr-pretreated human MT2 cells measured after 5 days by MTS assay

[30] = test system: Human immunodeficiency virus 1; experiment: microbe, parasite or virus in culture; settings: Human immunodeficiency virus 1, NL4-3, MT2, 120 h; remark: listed apart in the source
Description: Antiviral activity against 0.02 MOI wild type HIV1 NL4-3 infected in human MT2 cells measured after 5 days by RT SPA

[31] = test system: Human immunodeficiency virus 1; experiment: microbe, parasite or virus in culture; settings: Human immunodeficiency virus 1, subtype B-LAI, MT2
Description: Antiviral activity against HIV1 subtype B-LAI infected in 1 hr-pretreated human MT2 cells assessed as inhibition of multicycle replication measured on day 5 postinfection by RT SPA

[32] = test system: Human immunodeficiency virus 1; experiment: microbe, parasite or virus in culture; settings: Human immunodeficiency virus 1, NL4-3, MT2, 120 h; remark: listed apart in the source
Description: Antiviral activity against 0.005 MOI wild type HIV1 NL4-3 infected in human MT2 cells measured after 5 days by MTS assay

[33] = test system: Human immunodeficiency virus 1; type: functional, organism-based; settings: NL4-3, 2.5 uM
[34] = test system: Human immunodeficiency virus 1; experiment: microbe, parasite or virus in culture; settings: Human immunodeficiency virus 1, subtype B-3B, MT2
Description: Antiviral activity against HIV1 subtype B-3B infected in 1 hr-pretreated human MT2 cells assessed as inhibition of multicycle replication measured on day 5 postinfection by RT SPA

[35] = test system: Human immunodeficiency virus 1; experiment: microbe, parasite or virus in culture; settings: Human immunodeficiency virus 1, subtype B-ASM 044, PBMC
Description: Antiviral activity against HIV1 subtype B-ASM 044 infected in 1 hr-pretreated PBMC cells assessed as inhibition of p24 antigen production measured on day 5 postinfection by ELISA

[36] = test system: Human immunodeficiency virus 1; experiment: microbe, parasite or virus in culture; settings: Human immunodeficiency virus 1, NL4-3, MT2; remark: listed apart in the source
Description: Antiviral activity against 0.02 MOI wild type HIV1 NL4-3 infected in 2 hr-pretreated human MT2 cells measured after 5 days by RT SPA

[37] = test system: Human immunodeficiency virus 1; experiment: microbe, parasite or virus in culture; settings: Human immunodeficiency virus 1, NL4-3, MT2; remark: listed apart in the source
Description: Antiviral activity against 0.005 MOI wild type HIV1 NL4-3 infected in 2 hr-pretreated human MT2 cells measured after 5 days by MTS assay

[38] = test system: Human immunodeficiency virus 1; experiment: microbe, parasite or virus in culture; settings: Human immunodeficiency virus 1, subtype B-HXB2, MT2
Description: Antiviral activity against HIV1 subtype B-HXB2 infected in 1 hr-pretreated human MT2 cells assessed as inhibition of multicycle replication measured on day 5 postinfection by RT SPA

[39] = test system: Human immunodeficiency virus 1; experiment: microbe, parasite or virus in culture; settings: Human immunodeficiency virus 1, NL4-3, MT2; remark: listed apart in the source
Description: Antiviral activity against 0.01 MOI wild type HIV1 NL4-3 infected in 2 hr-pretreated human MT2 cells measured after 5 days by RT SPA

[40] = test system: Human immunodeficiency virus 1; experiment: Antiviral activity against pseudotype HIV1 LAI-Luc infected in human PBMC measured on day 3 postinfection by luciferase reporter gene assay; type: functional, organism-based; settings: Human immunodeficiency virus 1, LAI-Luc, 72 h
[41] = test system: Human immunodeficiency virus 1; experiment: Antiviral activity against 0.006 MOI HIV1 NL4-3 infected in 1 hr-pretreated human MT2 cells measured after 5 days by RT SPA; type: functional, organism-based; settings: Human immunodeficiency virus 1, NL4-3, MT2
[42] = test system: Human immunodeficiency virus 1; experiment: Antiviral activity against HIV1 infected in human CEM-SS cells after 10 days by MTT assay; type: functional, organism-based; settings: Human immunodeficiency virus 1, CEM-SS, 240 h
[43] = test system: Human immunodeficiency virus 1; experiment: microbe, parasite or virus in culture; settings: Human immunodeficiency virus 1, NL4-3, MT2; remark: listed apart in the source
Hepatitis B virus = experiment: Antiviral activity against Hepatitis B virus; type: functional, organism-based
[44] = test system: Human immunodeficiency virus 1; experiment: Antiviral activity against 0.006 MOI HIV1 NL4-3 infected in 2 hr-pretreated human MT2 cells measured after 5 days by RT SPA; type: functional, organism-based; settings: Human immunodeficiency virus 1, NL4-3, MT2
[45] = test system: Human immunodeficiency virus 1; experiment: microbe, parasite or virus in culture; settings: Human immunodeficiency virus 1, NL4-3, MT2, 120 h; remark: listed apart in the source
Description: Antiviral activity against 0.05 MOI wild type HIV1 NL4-3 infected in human MT2 cells measured after 5 days by MTS assay

[46] = Cmax in human blood; type: ADME, organism-based
[47] = test system: Human immunodeficiency virus 1; experiment: microbe, parasite or virus in culture; settings: Human immunodeficiency virus 1, NL-RLuc, MT2, 120 h
Description: Antiviral activity against pseudotype HIV1 NL-RLuc infected in human MT2 cells measured on day 5 postinfection by luciferase reporter gene assay

CEM-SS = experiment: Cytotoxicity against human CEM-SS cells after 10 days by MTT assay; type: cell-based; settings: 240 h

With O=C1Nc2ccc(Cl)cc2[C@@](C#CC2CC2)(C(F)(F)F)O1 [EFAVIRENZ] the EC50 [1] was 0.2 nM.

C=C1[C@H](CO)[C@@H](O)C[C@@H]1n1cnc2c(=O)[nH]c(N)nc21.O [ENTECAVIR] showed an EC50 [2] of 109 nM, an EC50 [3] of 0.1 nM and an EC50 [4] of 56 nM. It also gave an EC50 [5] greater than 2900 nM, an EC50 [6] greater than 10 µM and an EC50 [7] of 6.45 µM. The EC50 [8] was 1750 nM, the EC50 [9] was greater than 10 mM and the EC50 [10] was 30.6 µM. It also gave an EC50 [11] greater than 100 µM, an EC50 [12] greater than 10 µM and an EC50 [13] of 839 nM. It also gave an EC50 [14] greater than 6.35 µM, an EC50 [15] greater than 38 µM and an EC50 [16] greater than 4 µM. The EC50 [17] was 85 nM, the EC50 [18] was 1400 nM and the EC50 [19] was 151 nM. For the same molecule, the Cmax [20] was 30 nM, the EC50 [21] was 3.62 µM and the EC50 [22] was 95 nM. For the same molecule, the EC50 [23] was 62 nM, the EC50 [24] was greater than 1200 nM and the EC50 [25] was greater than 10 µM. It also gave an EC50 [26] greater than 10 µM, an EC50 [27] of 526 nM and an EC50 [28] of 30.6 µM. The EC50 [29] was greater than 9.69 µM, the EC50 [30] was 449 nM and the EC50 [31] was 71 nM. The EC50 [32] was 1360 nM, the EC50 [1] was greater than 10000 nM and the Activity [33] was “Active”. The EC50 [34] was 81 nM, the EC50 [35] was 26 nM and the EC50 [36] was greater than 10 mM. For the same molecule, the EC50 [37] was greater than 10 µM, the EC50 [38] was 1030 nM and the EC50 [39] was 9.57 µM. For the same molecule, the EC50 [40] was greater than 2500 nM, the EC50 [41] was 287 nM and the EC50 [42] was greater than 10 µM. For the same molecule, the EC50 [43] was 56 nM, the EC50 (Hepatitis B virus) was 4 nM and the EC50 [44] was 13.5 µM. The EC50 [45] was greater than 10 µM, the Cmax [46] was 30 nM and the EC50 [47] was 1300 nM. It also gave a CC50 (CEM-SS) of 21 µM.
